Source: publication PMC6522912, “Evaluation of the published kinase inhibitor set to identify multiple inhibitors of bacterial ATP-dependent mur ligases” (Journal of Enzyme Inhibition and Medicinal Chemistry, 2019)

Experiments:
[1] = system: human kinases; conditions: over 200 kinase activity assays and 68 DSF assays; cited from earlier work
[2] = biological target: MurD (Escherichia coli, UniProt P14900); test: 1H/13C HSQC NMR study of ligand binding; conditions: chemical shift perturbations, without and with 2 mM AMP-PCP
Chain of MurD (P14900 whole entry): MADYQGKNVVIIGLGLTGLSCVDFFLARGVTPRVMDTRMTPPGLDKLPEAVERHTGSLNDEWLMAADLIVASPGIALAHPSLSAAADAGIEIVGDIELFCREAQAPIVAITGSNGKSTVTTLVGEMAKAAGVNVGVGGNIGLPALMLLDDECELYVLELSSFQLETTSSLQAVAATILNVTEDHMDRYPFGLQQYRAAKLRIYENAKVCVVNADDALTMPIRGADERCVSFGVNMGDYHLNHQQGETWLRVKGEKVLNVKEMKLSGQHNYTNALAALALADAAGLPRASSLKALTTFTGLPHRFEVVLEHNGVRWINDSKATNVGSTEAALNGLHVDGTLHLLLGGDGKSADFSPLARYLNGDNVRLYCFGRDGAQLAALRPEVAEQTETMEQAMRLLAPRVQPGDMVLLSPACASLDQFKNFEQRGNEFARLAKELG
Method: The nuclear magnetic resonance (NMR) spectra were recorded at 25 °C on a spectrometer (DirectDrive 800 MHz; Varian, Slovenian NMR centre at National Institute of Chemistry) equipped with a cryoprobe. The pulse sequences provided in the Varian BioPack library of pulse programmes was used. The samples were prepared in 90% H2O/10% DMSO-d6 buffer containing 20 mM HEPES, 7 mM (NH4)2SO4, 3.5 mM MgCl2, and 2 mM dithiothreitol, pH 7.2. Here, 0.07 mM MurD that was selectively labelled with ^13 C at the methyl groups of Ile (δ1 only), Val and Leu was used. The protein was titrated using compound 1 in MurD:ligand molar ratios of 0.5, 1, 2, 4 and 8, without and with 2 mM β,γ-methyleneadenosine 5'-triphosphate (AMP–PCP). […] The final concentration of DMSO-d6 was 12% (v/v). The variation of DMSO from 10 to 12% (v/v) affects the chemical shift perturbations by <0.02 ppm[31].
The heteronuclear single quantum coherence (HSQC) spectra for ^1H/^13C were acquired with 1024 data points in t2, 32 scans, 64 complex points in t1, and relaxation delay of 1 s. […] The spectra were processed and analysed with the Felix 2007 software package (Felix NMR Inc., Laboratory of Biomolecular Structure at National Institute of Chemistry). […] The combined ^1H/^13C chemical shift perturbations (Δδ) were calculated from the ^1H and ^13C chemical shift perturbations using Equation (1)[32]: (1) Δδ=((Δδ^1H)^2+(0.252×Δδ^13C)^2)^1/2. […]

[3] = biological target: E. coli MurF (Escherichia coli, UniProt P11880); test: biochemical
Chain of E. coli MurF (P11880 whole entry): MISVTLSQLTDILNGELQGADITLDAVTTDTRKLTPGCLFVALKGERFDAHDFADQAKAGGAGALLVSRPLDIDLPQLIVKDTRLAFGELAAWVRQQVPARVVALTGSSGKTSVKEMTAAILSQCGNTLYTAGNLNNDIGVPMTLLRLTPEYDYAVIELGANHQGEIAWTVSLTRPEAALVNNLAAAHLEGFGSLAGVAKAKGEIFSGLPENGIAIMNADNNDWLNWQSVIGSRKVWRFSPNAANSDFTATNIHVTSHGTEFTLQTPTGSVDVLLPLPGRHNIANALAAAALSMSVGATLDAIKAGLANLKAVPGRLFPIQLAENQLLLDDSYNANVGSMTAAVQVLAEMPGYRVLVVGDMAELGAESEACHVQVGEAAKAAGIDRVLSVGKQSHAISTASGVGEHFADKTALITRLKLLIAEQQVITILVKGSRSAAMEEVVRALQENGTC

Cc1cc(-c2ccco2)cc(C)c1/C=C/c1cncc(-c2nn[nH]n2)c1 [Compound 1]
activity at human kinases [1]: no appreciable activity
binding site on MurD [2]: binds to the D-Glu binding site
remaining activity at 100 µM ([3]; 0.25 h, Table S1, PKIS screening, read-out: RA [%] at 100 µM MurF): 26%
IC50 ([3]; Table 1): 59 µM
RA (%) MurF ([3]; Table S3, aza stilbene compounds): 26%
LE (MurF) ([3]; ligand efficiency, LE = (1.37 × pIC50)/HAC): 0.22
MurF RA [%] ([3]; residual activity at 100 µM compound, Table 1): 26%
